The record followed here is patent US9555038B2, “Heterocycle-substituted tetracyclic compounds and methods of use thereof for the treatment of viral diseases” (Merck Sharp & Dohme Corp., priority 2013, dated 2017).

Structures are written as SMILES. Read-outs that look alike come from different tables or passages of the source.

The subject of one experiment is HCV replicon 1A. In words: Cell-based HCV Replicon Assay A, replicon 1A. In short, it runs like this:
(§1)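 2000 cells/well; 10 serial dilutions, top concentration 333.3 nM to 1.667 nM; 0.5% DMSO, 5% FBS; 3 days; lysis; multiplex TaqMan RT-PCR (NS5B/Neo plus cyclophilin), RNA from linear Ct standard curves.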
A general note: Replicon systems follow genome replication, usually without infectious particles.

The test system of a further experiment is HCV replicon 1AY93H. In words: Cell-based HCV Replicon Assay A, replicon 1AY93H. In short, it runs like this: as §1
The subject of the next experiment is HCV replicon 2B. In words: Cell-based HCV Replicon Assay A, replicon 2B. In short, it runs like this: as §1
[1] abbreviates: read-out: 1A Y93H IC50, replicon 1AY93H.
Setting [2] is: Hepatitis C virus, read-out: 1A Y93H IC50 (nM), replicon 1AY93H.
Where [3] appears, read: Hepatitis C virus, read-out: 2B IC50 (nM), replicon 2B.
Setting [4] is: replicon 1AY93H, read-out: 1A Y93H IC50.

As to `COC(=O)N[C@H](C(=O)N1CCC[C@H]1c1ncc(-c2cc(F)c3c(c2)OC(c2cnc(-c4ccc(Cl)cc4)s2)n2c-3cc3cc(-c4cnc([C@@H]5CCCN5C(=O)[C@@H](NC(=O)OC)C(C)C)[nH]4)ccc32)[nH]1)C(C)C` (single isomer, unassigned) [Compound 54], the IC50 (usually the concentration that gives 50% inhibition) in the experiment on HCV replicon 1A was 0.0013 nM; in the experiment with HCV replicon 1AY93H (setting [1]) it was 0.429 nM; with HCV replicon 2B (read-out: 2B IC50, replicon 2B) it was 0.248 nM.
Take `COC(=O)N[C@H](C(=O)N1CCC[C@H]1c1ncc(-c2cc(F)c3c(c2)OC(c2cn4ccnc4s2)n2c-3cc3cc(-c4cnc([C@@H]5CCCN5C(=O)[C@@H](NC(=O)OC)C(C)C)[nH]4)ccc32)[nH]1)C(C)C` (mixture of isomers) [Compound 417]: the IC50 in the experiment on HCV replicon 1A (Hepatitis C virus) stood at 0.0031 nM; with HCV replicon 1AY93H (setting [2]), 0.996 nM; in the experiment with HCV replicon 2B (setting [3]), 0.453 nM.
As for `CCCc1ncc(C2Oc3cc(-c4cnc([C@@H]5CCCN5C(=O)[C@@H](NC(=O)OC)C(C)C)[nH]4)cc(F)c3-c3cc4cc(-c5cnc([C@@H]6CCCN6C(=O)C(NC(=O)OC)C6CCOC(C)(C)C6)[nH]5)ccc4n32)s1` (single isomer, unassigned) [Compound 58], the IC50 in the experiment with HCV replicon 1A (Hepatitis C virus) amounted to 0.0026 nM; in the experiment with HCV replicon 1AY93H (setting [1]), 0.0086 nM; in the experiment with HCV replicon 2B (read-out: 2B IC50, replicon 2B), 0.003 nM.
Take `COC(=O)N[C@H](C(=O)N1CCC[C@H]1c1ncc(-c2cc(F)c3c(c2)OC(c2ncc(C4CC4)s2)n2c-3cc3cc(-c4cnc([C@@H]5CCCN5C(=O)[C@@H](NC(=O)OC)C(C)C)[nH]4)ccc32)[nH]1)C(C)C` (single isomer, unassigned) [Compound 7]: the IC50 in the experiment on HCV replicon 1A (Hepatitis C virus) came to 0.0014 nM; in the experiment on HCV replicon 1AY93H (setting [1]), 4.23 nM; in the experiment on HCV replicon 2B (read-out: 2B IC50, replicon 2B), 2.14 nM.
Consider `COC(=O)NC(C(=O)N1[C@@H]2C[C@@H]2C[C@H]1c1ncc(-c2ccc3c(c2)cc2n3C(c3cnc(C4CCCC4)s3)Oc3cc(-c4cnc([C@@H]5CCCN5C(=O)[C@@H](NC(=O)OC)C(C)C)[nH]4)cc(F)c3-2)[nH]1)C(C)(C)F` (single isomer, unassigned) [Compound 328], for which the IC50 with HCV replicon 1A was 0.0015 nM; in the experiment on HCV replicon 1AY93H (setting [1]), 0.0463 nM; with HCV replicon 2B (read-out: 2B IC50, replicon 2B) it was 0.163 nM.
Regarding `CCCc1ncc(C2Oc3cc(-c4cnc([C@@H]5CCCN5C(=O)[C@@H](NC(=O)OC)C(C)C)[nH]4)cc(F)c3-c3cc4cc(-c5cnc([C@@H]6C[C@H]7C[C@H]7N6C(=O)[C@@H](NC(=O)OC)C(C)C)[nH]5)ccc4n32)s1` (single isomer, unassigned) [Compound 91], the 50% inhibitory concentration (IC50) with HCV replicon 1A came to 0.0021 nM; in the experiment with HCV replicon 1AY93H (setting [1]) it was 0.0537 nM; in the experiment on HCV replicon 2B (read-out: 2B IC50, replicon 2B), 0.17 nM.
As to `COC(=O)NC(C(=O)N1CCC[C@H]1c1ncc(-c2ccc3c(c2)cc2n3C(c3cnc(C(C)C)s3)Oc3cc(-c4cnc([C@@H]5CCCN5C(=O)[C@@H](NC(=O)OC)C(C)C)[nH]4)cc(F)c3-2)[nH]1)C1CCOC(C)(C)C1` (single isomer, unassigned) [Compound 62], the IC50 in the experiment on HCV replicon 1A amounted to 0.0018 nM; in the experiment on HCV replicon 1AY93H (setting [2]) it was 0.212 nM; in the experiment on HCV replicon 2B (read-out: 2B IC50, replicon 2B), 0.427 nM.
Regarding `COC(=O)N[C@H](C(=O)N1CCC[C@H]1c1ncc(-c2cc(F)c3c(c2)OC(c2cscn2)n2c-3cc3cc(-c4cnc([C@@H]5CCCN5C(=O)[C@@H](NC(=O)OC)C(C)C)[nH]4)ccc32)[nH]1)C(C)C` (single isomer, unassigned) [Compound 431], the IC50 in the experiment with HCV replicon 1A worked out at 0.033 nM; in the experiment with HCV replicon 1AY93H (setting [1]) it was 0.56 nM; in the experiment on HCV replicon 2B (read-out: 2B IC50, replicon 2B), 3.1 nM.
With `COC(=O)N[C@H](C(=O)N1CCC[C@H]1c1ncc(-c2cc(F)c3c(c2)OC(c2cnc(CC4CC4)s2)n2c-3cc3cc(-c4cnc([C@@H]5CCCN5C(=O)[C@@H](NC(=O)OC)C(C)C)[nH]4)ccc32)[nH]1)C(C)C` (single isomer, unassigned) [Compound 510], the IC50 was 0.001 nM in the experiment with HCV replicon 1A; 0.629 nM with HCV replicon 1AY93H (setting [4]); 0.624 nM in the experiment with HCV replicon 2B (replicon 2B, read-out: 2B IC50).
The corresponding values for `COC(=O)NC(C(=O)N1[C@@H]2C[C@@H]2C[C@H]1c1ncc(-c2ccc3c(c2)cc2n3C(c3cnc(CC(C)C)s3)Oc3cc(-c4cnc([C@@H]5CCCN5C(=O)[C@@H](NC(=O)OC)C(C)C)[nH]4)cc(F)c3-2)[nH]1)C1CCOC(C)(C)C1` (single isomer, unassigned) [Compound 436] are 0.0011 nM, 0.126 nM and 0.318 nM.
`COC(=O)NC(C(=O)N1CCC[C@H]1c1ncc(-c2ccc3c(c2)cc2n3C(c3cnc(C(C)C)s3)Oc3cc(-c4cnc([C@@H]5CCCN5C(=O)[C@@H](NC(=O)OC)C(C)C)[nH]4)cc(F)c3-2)[nH]1)C1C[C@@H](C)O[C@@H](C)C1` (single isomer, unassigned) [Compound 56]: the IC50 with HCV replicon 1A (Hepatitis C virus) came to 0.0011 nM; with HCV replicon 1AY93H (setting [1]), 0.285 nM; with HCV replicon 2B (read-out: 2B IC50, replicon 2B) it was 0.104 nM.
Consider `COC(=O)NC(C(=O)N1CCC[C@H]1c1ncc(-c2ccc3c(c2)cc2n3C(c3cnc(C4CCC4)s3)Oc3cc(-c4cnc([C@@H]5CCCN5C(=O)[C@@H](NC(=O)OC)C(C)C)[nH]4)cc(C)c3-2)[nH]1)C1C[C@@H](C)O[C@@H](C)C1` (single isomer, unassigned) [Compound 218], for which the IC50 in the experiment on HCV replicon 1A (Hepatitis C virus) was 0.002 nM; in the experiment with HCV replicon 1AY93H (setting [1]) it was 0.12 nM; with HCV replicon 2B (read-out: 2B IC50, replicon 2B), 0.035 nM.
Consider `COC(=O)N[C@H](C(=O)N1CCC[C@H]1c1ncc(-c2cc(F)c3c(c2)OC(c2nc(C(F)(F)F)cs2)n2c-3cc3cc(-c4cnc([C@@H]5CCCN5C(=O)[C@@H](NC(=O)OC)C(C)C)[nH]4)ccc32)[nH]1)C(C)C` (single isomer, unassigned) [Compound 419], for which the values for the IC50 with HCV replicon 1A, in the experiment on HCV replicon 1AY93H (setting [1]) and in the experiment with HCV replicon 2B (setting [3]) were 0.0041 nM, 17.9 nM and 6.47 nM, respectively.
In the case of `CCc1ncc(C2Oc3cc(-c4cnc([C@@H]5CCCN5C(=O)[C@@H](NC(=O)OC)C(C)C)[nH]4)cc(F)c3-c3cc4cc(-c5cnc([C@@H]6CCCN6C(=O)C(NC(=O)OC)C6CCOC(C)(C)C6)[nH]5)ccc4n32)s1` (single isomer, unassigned) [Compound 37], the IC50 with HCV replicon 1A (Hepatitis C virus) worked out at 0.0022 nM; with HCV replicon 1AY93H (setting [1]), 0.257 nM; in the experiment with HCV replicon 2B (read-out: 2B IC50, replicon 2B), 0.226 nM.
Consider `COC(=O)N[C@H](C(=O)C1CCC[C@H]1c1ncc(-c2ccc3c(c2)cc2n3C(c3cnc(CC(C)C)s3)Oc3cc(-c4cnc([C@@H]5CCCN5C(=O)[C@@H](NC(=O)OC)C(C)C)[nH]4)cc(F)c3-2)[nH]1)C(C)C` (mixture of isomers) [Compound 403], for which the IC50 with HCV replicon 1A (Hepatitis C virus) is 0.0064 nM; in the experiment with HCV replicon 1AY93H (setting [2]), 0.016 nM; in the experiment on HCV replicon 2B (setting [3]), 0.142 nM.
For `COC(=O)NC(C(=O)N1[C@@H]2C[C@@H]2C[C@H]1c1ncc(-c2ccc3c(c2)cc2n3C(c3cnc(C(C)C)s3)Oc3cc(-c4cnc([C@@H]5CCCN5C(=O)[C@@H](NC(=O)OC)C(C)C)[nH]4)cc(F)c3-2)[nH]1)C1CCOC(C)(C)C1` (single isomer, unassigned) [Compound 68], the IC50 came out at 0.0014 nM with HCV replicon 1A, 0.0996 nM with HCV replicon 1AY93H (setting [1]) and 0.253 nM in the experiment with HCV replicon 2B (setting [3]).
On to `COC(=O)N[C@H](C(=O)N1CCC[C@H]1c1ncc(-c2cc(F)c3c(c2)OC(c2nc(C(F)(F)F)cs2)n2c-3cc3cc(-c4cnc([C@@H]5CCCN5C(=O)[C@@H](NC(=O)OC)C(C)C)[nH]4)ccc32)[nH]1)C(C)C` (single isomer, unassigned) [Compound 420], for which the IC50 in the experiment with HCV replicon 1A was 0.0101 nM; in the experiment with HCV replicon 1AY93H (setting [1]), 1.87 nM; in the experiment on HCV replicon 2B (read-out: 2B IC50, replicon 2B), 5.56 nM.
`COC(=O)NC(C(=O)N1CCC[C@H]1c1ncc(-c2ccc3c(c2)cc2n3C(c3cnc(C(C)C)s3)Oc3cc(-c4cnc([C@@H]5CCCN5C(=O)[C@@H](NC(=O)OC)C(C)C)[nH]4)cc(F)c3-2)[nH]1)C1CCOC(C)(C)C1` (single isomer, unassigned) [Compound 63]: the IC50 in the experiment with HCV replicon 1A worked out at 0.0483 nM; in the experiment with HCV replicon 1AY93H (setting [1]) it was 0.254 nM; in the experiment on HCV replicon 2B (read-out: 2B IC50, replicon 2B), 1.67 nM.
As to `COC(=O)N[C@H](C(=O)N1CCC[C@H]1c1ncc(-c2cc(F)c3c(c2)OC(c2cnc(-c4ccccn4)s2)n2c-3cc3cc(-c4cnc([C@@H]5CCCN5C(=O)[C@@H](NC(=O)OC)C(C)C)[nH]4)ccc32)[nH]1)C(C)C` (single isomer, unassigned) [Compound 406], the figures for the IC50 with HCV replicon 1A (Hepatitis C virus), in the experiment on HCV replicon 1AY93H (setting [2]) and with HCV replicon 2B (setting [3]) were 0.003 nM, 0.0034 nM and 0.005 nM, respectively.
On to `COC(=O)N[C@H](C(=O)N1CCC[C@H]1c1ncc(-c2cc(C)c3c(c2)OC(c2cnc(C4CC4)s2)n2c-3cc3cc(-c4cnc([C@@H]5C[C@H]6C[C@H]6N5C(=O)[C@@H](NC(=O)OC)C(C)(C)F)[nH]4)ccc32)[nH]1)C(C)C` (single isomer, unassigned) [Compound 209], for which the half-maximal inhibitory concentration (IC50) with HCV replicon 1A is 0.003 nM; in the experiment with HCV replicon 1AY93H (setting [1]) it was 0.197 nM; in the experiment on HCV replicon 2B (read-out: 2B IC50, replicon 2B), 0.155 nM.
For `COC(=O)NC(C(=O)N1[C@@H]2C[C@@H]2C[C@H]1c1ncc(-c2ccc3c(c2)cc2n3C(c3ncc(C4CC4)s3)Oc3cc(-c4cnc([C@@H]5CCCN5C(=O)[C@@H](NC(=O)OC)C(C)C)[nH]4)cc(F)c3-2)[nH]1)C1C[C@@H](C)O[C@@H](C)C1` (single isomer, unassigned) [Compound 64], the IC50 is 0.0012 nM with HCV replicon 1A (Hepatitis C virus); 0.159 nM in the experiment with HCV replicon 1AY93H (setting [1]); 0.268 nM in the experiment with HCV replicon 2B (read-out: 2B IC50, replicon 2B).
On to `COC(=O)N[C@H](C(=O)N1CCC[C@H]1c1ncc(-c2cc(F)c3c(c2)OC(c2cscn2)n2c-3cc3cc(-c4cnc([C@@H]5CCCN5C(=O)[C@@H](NC(=O)OC)C(C)C)[nH]4)ccc32)[nH]1)C(C)C` (single isomer, unassigned) [Compound 430], for which the IC50 turned out to be 0.006 nM with HCV replicon 1A; 19.5 nM with HCV replicon 1AY93H (setting [1]); 7.1 nM with HCV replicon 2B (read-out: 2B IC50, replicon 2B).
With `COC(=O)NC(C(=O)N1CCC[C@H]1c1ncc(-c2ccc3c(c2)cc2n3C(c3cnc(CC(C)C)s3)Oc3cc(-c4cnc([C@@H]5CCCN5C(=O)[C@@H](NC(=O)OC)C(C)C)[nH]4)cc(F)c3-2)[nH]1)C1CCOC(C)(C)C1` (single isomer, unassigned) [Compound 543], the IC50 with HCV replicon 1A worked out at 0.0021 nM; in the experiment on HCV replicon 1AY93H (setting [1]), 0.167 nM; with HCV replicon 2B (read-out: 2B IC50, replicon 2B), 0.153 nM.
